{"source": "patent US20070248633A1", "about": "“COMPOSITIONS CONTAINING A HYDROXYLATED DIPHENYLMETHANE COMPOUND, METHODS OF USE” (L'OREAL, priority 2006, published 2007)", "test": "Tests of solubilization of a hydroxylated diphenylmethane compound of formula (I) in solubilizers", "assay_type": "physicochemical", "settings": "for % max solubility of the hydroxylated diphenylmethane compound of formula (I): optionally heated to 45° C., stirred one hour", "experimental": "The compound Phenylethylbenzendiol marketed under the name Symwhite® by Symrise is used as hydroxylated diphenylmethane compound of formula (I).\nThis compound is weighed and placed in a sealed specimen tube.\nSeveral solubilizers are tested: 10 ml of solubilizer are placed in a beaker and the compound Phenylethylbenzendiol is added mg per mg. The suspension, optionally heated to 45° C., is stirred by magnetic stirring for one hour.\nThe dissolution or non-dissolution of the hydroxylated diphenylmethane compound of formula (I), and its variation over time are then monitored.\nThe non-solubility of the hydroxylated diphenylmethane compound of formula (I) in the solubilizer is macroscopically characterized by a precipitate or just a cloudy solution, and microscopically by the presence of crystals.", "data": [{"smiles": "CC(c1ccccc1)c1ccc(O)cc1O", "note": "(centres unmarked) [4-(1-phenylethyl)-1,3-benzenediol]", "values": [{"measurement": "amount solubilized", "setting": "solubilizer: 2-octyldodecanol", "result": "more than 20 % by weight"}, {"measurement": "amount solubilized", "setting": "solubilizer: Dicaprylyl carbonate", "result": "more than 20 % by weight"}, {"measurement": "amount solubilized", "setting": "solubilizer: dimethyl isosorbide", "result": "more than 20 % by weight"}, {"measurement": "amount solubilized", "setting": "solubilizer: isopropyl N-lauroylsarcosinate (remainder of the solution consisting of the solubilizer)", "result": "up to 42 % by weight"}, {"measurement": "amount solubilized", "setting": "solubilizer: octyl methoxycinnamate", "result": "more than 20 % by weight"}, {"measurement": "% max solubility of the hydroxylated diphenylmethane compound of formula (I)", "setting": "solvent: 2-Octyldodecanol (EUTANOL G from COGNIS)", "result": 22.52, "unit": "%"}, {"measurement": "% max solubility of the hydroxylated diphenylmethane compound of formula (I)", "setting": "solvent: Apricot oil (APRICOT KERNEL OIL from DESERT WHALE)", "result": 10.00, "unit": "%"}, {"measurement": "% max solubility of the hydroxylated diphenylmethane compound of formula (I)", "setting": "solvent: Apricot oil (APRICOT KERNEL OIL from DESERT WHALE), listed as hydroxylated diphenylmethane compound (I)", "result": "≤ 10", "unit": "%"}, {"measurement": "% max solubility of the hydroxylated diphenylmethane compound of formula (I)", "setting": "solvent: Dicaprylyl carbonate (CETIOL CC from COGNIS)", "result": 26.74, "unit": "%"}, {"measurement": "% max solubility of the hydroxylated diphenylmethane compound of formula (I)", "setting": "solvent: Dimethyl isosorbide (ARLASOLVE DMI from UNIQEMA)", "result": 31.30, "unit": "%"}, {"measurement": "% max solubility of the hydroxylated diphenylmethane compound of formula (I)", "setting": "solvent: Hydrogenated isoparaffin (PARLEAM from NOF CORPORATION), paraffin oil", "result": "not soluble"}, {"measurement": "% max solubility of the hydroxylated diphenylmethane compound of formula (I)", "setting": "solvent: Hydrogenated isoparaffin (PARLEAM from NOF CORPORATION), paraffin oil, listed as hydroxylated diphenylmethane compound (I)", "result": "does not make it possible to solubilize"}, {"measurement": "% max solubility of the hydroxylated diphenylmethane compound of formula (I)", "setting": "solvent: Isopropyl N-lauroylsarcosinate (ELDEW SL 205 from AJINOMOTO)", "result": 42.00, "unit": "%"}, {"measurement": "% max solubility of the hydroxylated diphenylmethane compound of formula (I)", "setting": "solvent: Octyl methoxycinnamate (PARSOL MCX from GIVAUDAN (DSM Nutritional Products))", "result": 26.00, "unit": "%"}]}]}
